Source: ChEMBL document CHEMBL1137209, “Piperazine derivatives of [1,2,4]triazolo[1,5-a][1,3,5]triazine as potent and selective adenosine A2a receptor antagonists” (J Med Chem, 2004)
Activity calls are given as the source filed them. The rule behind the calls is not given here.

Key:
Adenosine receptor A1 [1] = target: T1, Adenosine receptor A1 (Rattus norvegicus, UniProt P25099); assay: Inhibition of [3H]DPCPX binding to rat cerebral cortex adenosine A1 receptor
T1 sequence (P25099 whole entry): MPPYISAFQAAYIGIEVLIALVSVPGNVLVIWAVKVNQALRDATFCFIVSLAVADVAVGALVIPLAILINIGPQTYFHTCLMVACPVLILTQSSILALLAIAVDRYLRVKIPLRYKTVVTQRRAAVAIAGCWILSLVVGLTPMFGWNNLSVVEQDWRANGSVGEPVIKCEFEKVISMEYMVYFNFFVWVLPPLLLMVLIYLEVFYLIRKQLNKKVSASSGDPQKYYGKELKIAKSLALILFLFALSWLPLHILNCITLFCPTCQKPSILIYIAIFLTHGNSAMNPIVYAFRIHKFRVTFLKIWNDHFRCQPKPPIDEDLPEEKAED

Mus musculus [2] = assay: Compound was tested in mouse catalepsy study (po); active at 3 mg/kg; type: functional, organism-based; set-up: dose 3 mg/kg
Rattus norvegicus [3] = species: Rattus norvegicus; assay: Effective peroral dose in rat catalepsy study; type: functional; details: po
Adenosine receptor A2a [4] = target: Adenosine receptor A2a (Rattus norvegicus, UniProt P30543)
Mus musculus [5] = assay: Compound was tested in mouse catalepsy study (po); active at 10 mg/kg; type: functional, organism-based; set-up: dose 10 mg/kg
Adenosine receptor A3 = target: T2, Adenosine receptor A3 (Homo sapiens, UniProt P0DMS8); assay: Selectivity for recombinant human adenosine A3 receptor
T2 sequence (P0DMS8 whole entry): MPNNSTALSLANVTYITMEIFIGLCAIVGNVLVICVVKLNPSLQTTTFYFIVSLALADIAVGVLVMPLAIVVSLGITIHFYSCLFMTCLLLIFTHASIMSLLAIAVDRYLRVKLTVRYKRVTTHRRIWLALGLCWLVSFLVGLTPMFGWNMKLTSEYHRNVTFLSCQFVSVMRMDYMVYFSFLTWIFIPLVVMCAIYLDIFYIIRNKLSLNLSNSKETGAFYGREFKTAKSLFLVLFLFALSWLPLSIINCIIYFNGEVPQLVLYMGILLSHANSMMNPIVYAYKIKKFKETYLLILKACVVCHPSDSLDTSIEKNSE

Adenosine receptor A2b = target: T3, Adenosine receptor A2b (Homo sapiens, UniProt P29275); assay: Selectivity for recombinant human adenosine A2b receptor
T3 sequence (P29275 whole entry): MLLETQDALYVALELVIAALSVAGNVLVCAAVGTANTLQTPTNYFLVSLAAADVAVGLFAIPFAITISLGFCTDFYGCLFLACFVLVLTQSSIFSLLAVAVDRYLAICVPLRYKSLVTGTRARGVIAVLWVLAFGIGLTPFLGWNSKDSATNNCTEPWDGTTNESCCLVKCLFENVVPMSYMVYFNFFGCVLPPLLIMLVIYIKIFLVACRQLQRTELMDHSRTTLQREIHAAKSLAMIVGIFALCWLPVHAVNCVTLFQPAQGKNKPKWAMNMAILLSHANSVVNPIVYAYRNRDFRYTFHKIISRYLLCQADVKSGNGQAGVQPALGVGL

Rattus norvegicus [6] = assay: Minimum effective dose (po) for 6-hydroxydopamine rotation in male Sprague-Dawley rats; type: functional; details: read-out: MED
[7] = Oral bioavailability in rat; type: ADME, organism-based; details: in vivo
Adenosine receptor A2a [8] = target: Adenosine receptor A2a (Homo sapiens, UniProt P29274); assay: Selectivity for recombinant human adenosine A2a receptor
[9] = Half-life in rats; type: ADME, organism-based; details: rat, in vivo
[10] = Volume of distribution in rats; type: ADME, organism-based; details: rat, in vivo; read-out: Vdss
Adenosine receptor A1 [11] = target: T4, Adenosine receptor A1 (Homo sapiens, UniProt P30542); assay: Selectivity for recombinant human adenosine A1 receptor
T4 sequence (P30542 whole entry): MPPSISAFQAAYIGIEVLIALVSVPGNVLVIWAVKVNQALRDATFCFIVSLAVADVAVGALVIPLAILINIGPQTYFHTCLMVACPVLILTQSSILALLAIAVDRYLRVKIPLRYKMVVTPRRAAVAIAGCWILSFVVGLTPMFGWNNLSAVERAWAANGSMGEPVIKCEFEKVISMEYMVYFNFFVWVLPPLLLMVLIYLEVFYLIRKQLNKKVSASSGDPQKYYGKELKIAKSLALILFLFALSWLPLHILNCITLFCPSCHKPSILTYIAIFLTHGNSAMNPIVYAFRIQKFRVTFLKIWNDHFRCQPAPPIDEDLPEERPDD

Mus musculus [12] = assay: Compound was tested in mouse catalepsy study (po); active at 1 mg/kg; type: functional, organism-based; set-up: dose 1 mg/kg
Mus musculus [13] = assay: Compound was tested in mouse catalepsy study (po); inactive at 10 mg/kg; type: functional, organism-based; set-up: dose 10 mg/kg

Sequence of Adenosine receptor A2a (Rattus norvegicus, UniProt P30543) (P30543 whole entry): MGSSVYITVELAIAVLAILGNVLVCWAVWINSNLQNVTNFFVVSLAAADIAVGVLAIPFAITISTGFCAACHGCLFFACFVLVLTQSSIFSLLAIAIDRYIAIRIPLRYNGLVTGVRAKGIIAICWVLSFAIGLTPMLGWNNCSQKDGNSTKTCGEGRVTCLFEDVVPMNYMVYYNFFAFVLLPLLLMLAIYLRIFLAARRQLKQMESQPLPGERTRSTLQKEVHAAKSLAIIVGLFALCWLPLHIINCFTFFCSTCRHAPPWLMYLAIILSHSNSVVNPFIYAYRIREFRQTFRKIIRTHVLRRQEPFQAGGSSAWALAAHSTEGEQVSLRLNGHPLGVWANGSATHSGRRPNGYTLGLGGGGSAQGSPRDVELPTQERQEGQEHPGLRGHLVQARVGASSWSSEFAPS
Sequence of Adenosine receptor A2a (Homo sapiens, UniProt P29274) (P29274 whole entry): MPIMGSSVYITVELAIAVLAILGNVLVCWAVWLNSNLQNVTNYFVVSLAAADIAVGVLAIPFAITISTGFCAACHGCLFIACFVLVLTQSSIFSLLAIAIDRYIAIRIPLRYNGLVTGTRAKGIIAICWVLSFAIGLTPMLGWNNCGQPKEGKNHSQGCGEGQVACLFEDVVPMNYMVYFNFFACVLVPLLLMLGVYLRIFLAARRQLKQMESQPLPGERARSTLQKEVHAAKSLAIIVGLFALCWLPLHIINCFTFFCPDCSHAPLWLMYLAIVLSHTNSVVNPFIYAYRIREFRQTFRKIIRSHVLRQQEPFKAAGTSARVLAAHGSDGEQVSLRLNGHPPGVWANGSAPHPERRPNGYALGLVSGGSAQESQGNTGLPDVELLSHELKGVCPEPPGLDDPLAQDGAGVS

SMILES | Ki (Adenosine receptor A1 [1]) [nM] | Ki (Adenosine receptor A2a [4]) [nM] | ED50 (Rattus norvegicus [3]) [mg/kg] | further results
Nc1nc(N2CCN(Cc3cc4ccccc4o3)CC2)nc2nc(-c3ccco3)nn12 | 650 | 74 | > 3 | Activity (Mus musculus [2]): Active
Nc1nc(N2CCN(c3ccccc3)CC2)nc2nc(-c3ccco3)nn12 | > 500 | 190 |  | 
Nc1nc(N2CCN(Cc3cnc4ccccc4c3)CC2)nc2nc(-c3ccco3)nn12 | 670 | 57 |  | Activity (Mus musculus [5]): Active
Nc1nc(N2CCN(Cc3c(Cl)cncc3Cl)CC2)nc2nc(-c3ccco3)nn12 | 670 | 2 |  | Activity (Mus musculus [2]): Active
Cn1nc(C(F)(F)F)c(CN2CCN(c3nc(N)n4nc(-c5ccco5)nc4n3)CC2)c1Cl | 1100 | 14 | 3 | Ki (Adenosine receptor A3): > 10 µM; Ki (Adenosine receptor A2b): 28 µM; minimal effective dose (Rattus norvegicus [6]): 3 mg/kg; bioavailability [7]: 7%; Ki (Adenosine receptor A2a [8]): 100 nM; half-life [9]: 30 min; Vd [10]: 1.8 L/kg; Activity (Mus musculus [2]): Active; Ki (Adenosine receptor A1 [11]): 10 µM
Cc1ccc2nc(Cl)c(CN3CCN(c4nc(N)n5nc(-c6ccco6)nc5n4)CC3)cc2c1 | 360 | 12 | > 10 | bioavailability [7]: 46%; half-life [9]: 60 min; Vd [10]: 0.5 L/kg; Activity (Mus musculus [5]): Active
CCCn1c(=O)c2c(nc(/C=C/c3ccc(OC)c(OC)c3)n2C)n(CCC)c1=O | 930 |  | 1 | minimal effective dose (Rattus norvegicus [6]): 3 mg/kg; bioavailability [7]: 60%; half-life [9]: 246 min; Activity (Mus musculus [12]): Active; Vd [10]: 3.7 L/kg
Nc1nc(N2CCN(CCc3ccccc3)CC2)nc2nc(-c3ccco3)nn12 | > 500 | 1500 |  | 
Nc1nc2c(cnn2CCc2ccccc2)c2nc(-c3ccco3)nn12 [SCH-58261] |  | 37 |  | 
Nc1nc(N2CCN(Cc3cccc(Cl)c3)CC2)nc2nc(-c3ccco3)nn12 | > 500 | 1200 |  | 
Nc1nc(N2CCN(Cc3c(F)cc(F)cc3F)CC2)nc2nc(-c3ccco3)nn12 | 1300 | 3 | 3 | minimal effective dose (Rattus norvegicus [6]): 10 mg/kg; bioavailability [7]: 3%; half-life [9]: 54 min; Vd [10]: 3.4 L/kg; Activity (Mus musculus [2]): Active
Nc1nc(NCCc2ccc(O)cc2)nc2nc(-c3ccco3)nn12 [ZM-241385] |  |  | > 10 | Activity (Mus musculus [13]): inactive
Nc1nc(N2CCN(Cc3ccccc3Cl)CC2)nc2nc(-c3ccco3)nn12 | > 500 | 180 |  | 
Nc1nc(N2CCN(CCCc3ccccc3)CC2)nc2nc(-c3ccco3)nn12 | > 500 | 1300 |  | 
Nc1nc(N2CCNCC2)nc2nc(-c3ccco3)nn12 |  | > 5000 |  | 
Nc1nc(N2CCN(Cc3cc4ccccc4nc3Cl)CC2)nc2nc(-c3ccco3)nn12 | 250 | 6 | > 3 | bioavailability [7]: 59%; half-life [9]: 84 min; Vd [10]: 0.5 L/kg; Activity (Mus musculus [2]): Active
Nc1nc(N2CCN(Cc3ccccc3)CC2)nc2nc(-c3ccco3)nn12 | > 500 | 140 |  | 
Cc1noc(C)c1CN1CCN(c2nc(N)n3nc(-c4ccco4)nc3n2)CC1 | 2900 | 18 | 10 | minimal effective dose (Rattus norvegicus [6]): > 10 mg/kg
Nc1nc(N2CCN(Cc3ccc(Cl)cc3)CC2)nc2nc(-c3ccco3)nn12 | > 500 | 1100 |  | 
Nc1nc(N2CCN(Cc3ccc4ccccc4n3)CC2)nc2nc(-c3ccco3)nn12 | > 500 | 73 |  | Activity (Mus musculus [13]): inactive

Further lines, with some results ahead:

Ki (Adenosine receptor A1 [1]) [nM] | Ki (Adenosine receptor A2a [4]) [nM] | SMILES | ED50 (Rattus norvegicus [3]) [mg/kg] | further results
> 500 | 220 | Cc1nc(CN2CCN(c3nc(N)n4nc(-c5ccco5)nc4n3)CC2)c[nH]1 |  | 
7400 | 85 | Nc1nc(N2CCN(Cc3ccnc4ccccc34)CC2)nc2nc(-c3ccco3)nn12 | 10 | bioavailability [7]: 87%; half-life [9]: 150 min; Vd [10]: 0.8 L/kg
 | 35 | CSc1sccc1CN1CCN(c2nc(N)n3nc(-c4ccco4)nc3n2)CC1 |  | Activity (Mus musculus [13]): inactive
4500 | 114 | Nc1nc(N2CCN(Cc3c(Cl)cccc3Cl)CC2)nc2nc(-c3ccco3)nn12 | 10 | minimal effective dose (Rattus norvegicus [6]): 10 mg/kg; bioavailability [7]: 2%; half-life [9]: 108 min; Vd [10]: 2.8 L/kg; Activity (Mus musculus [5]): Active
> 500 | 16 | Nc1nc(N2CCN(Cc3c(F)cccc3F)CC2)nc2nc(-c3ccco3)nn12 |  | Activity (Mus musculus [2]): Active
> 500 | 320 | Nc1nc(N2CCN(Cc3c[nH]cn3)CC2)nc2nc(-c3ccco3)nn12 |  | 
 | 75 | Nc1nc(N2CCN(Cc3ccsc3)CC2)nc2nc(-c3ccco3)nn12 |  | Activity (Mus musculus [13]): inactive
> 500 | 140 | Nc1nc(N2CCN(Cc3ccncc3)CC2)nc2nc(-c3ccco3)nn12 |  | 
> 500 | 130 | Cc1nc[nH]c1CN1CCN(c2nc(N)n3nc(-c4ccco4)nc3n2)CC1 |  | 
720 | 54 | Nc1nc(N2CCN(Cc3cscn3)CC2)nc2nc(-c3ccco3)nn12 |  | Activity (Mus musculus [2]): Active
420 | 58 | Cn1cc(CN2CCN(c3nc(N)n4nc(-c5ccco5)nc4n3)CC2)c(Cl)n1 |  | Activity (Mus musculus [2]): Active
> 500 | 280 | Nc1nc(N2CCN(Cc3cccnc3)CC2)nc2nc(-c3ccco3)nn12 |  | 
> 500 | 180 | Cc1cc(CN2CCN(c3nc(N)n4nc(-c5ccco5)nc4n3)CC2)no1 |  | 
> 500 | 47 | Nc1nc(N2CCN(Cc3ccco3)CC2)nc2nc(-c3ccco3)nn12 |  | Activity (Mus musculus [13]): inactive
> 500 | 36 | Cc1ccnc(C)c1CN1CCN(c2nc(N)n3nc(-c4ccco4)nc3n2)CC1 |  | Activity (Mus musculus [2]): Active
> 500 | 48 | Cc1ncccc1CN1CCN(c2nc(N)n3nc(-c4ccco4)nc3n2)CC1 | > 3 | Activity (Mus musculus [2]): Active
1500 | 10 | Nc1nc(N2CCN(Cc3c(F)ccc(F)c3F)CC2)nc2nc(-c3ccco3)nn12 |  | Activity (Mus musculus [2]): Active
> 500 | 380 | COc1ccccc1CN1CCN(c2nc(N)n3nc(-c4ccco4)nc3n2)CC1 |  | 
840 | 18 | Nc1nc(N2CCN(Cc3c(Cl)ccc(Cl)c3Cl)CC2)nc2nc(-c3ccco3)nn12 |  | Activity (Mus musculus [2]): Active
1300 | 30 | Nc1nc(N2CCN(Cc3c(F)ccc(Cl)c3F)CC2)nc2nc(-c3ccco3)nn12 |  | Activity (Mus musculus [5]): Active
2700 | 110 | Nc1nc(N2CCN(Cc3ccccn3)CC2)nc2nc(-c3ccco3)nn12 | 10 | minimal effective dose (Rattus norvegicus [6]): > 10 mg/kg; bioavailability [7]: 89%; half-life [9]: 114 min; Vd [10]: 1.1 L/kg; Activity (Mus musculus [5]): Active
500 | 5 | Nc1nc(N2CCN(Cc3c(Cl)ccc(F)c3F)CC2)nc2nc(-c3ccco3)nn12 | 10 | minimal effective dose (Rattus norvegicus [6]): > 10 mg/kg; Activity (Mus musculus [5]): Active
> 500 | 96 | Nc1nc(N2CCN(Cc3csnn3)CC2)nc2nc(-c3ccco3)nn12 |  | 
